Experimental data reported in PubChem BioAssay AID850 (SRMLSC, 2007).
Calls of active or inactive are those of the source. How the calls were made is not given here.

What was measured:
[1] = test system: Saccharomyces cerevisiae growth inhibition, permissive control; test: yeast lifespan-shortening chemical project counter-assay, dose-response inhibition of growth under permissive conditions (AID 850);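 further: growth read as optical density after one day of incubation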
[2] = as above; settings: Saccharomyces cerevisiae growth inhibition, permissive control, measured here: maximum growth inhibition, stronger effect = higher value

SMILES	IC50 [1]	inhibition ([2]; at 50 µM)	further results
CCOc1cccc(-c2nnc3n2N=C(c2cc(OC)ccc2OC)CS3)c1	> 100 µM (inactive)		inhibition ([2]; at 6.25 µM): 14.8%
CN1C(=O)/C(=N/OC(=O)c2ccccc2)c2ccccc21	46.3 µM	90.8%	
CCCCCCN1N=C(C)C(C(=O)c2ccc(Cl)cc2)C1=O (stereo not given)	24.5 µM	75%	
CCOC(=O)c1c(-c2ccc(-c3ccccc3)cc2)csc1NC(=O)CCN1CCOCC1	15.5 µM	94.6%	
Cc1conc1NC(c1cccs1)c1ccc2cccnc2c1O (stereo not given)	44.9 µM	69.2%	
CCCc1ccc(Oc2c(-c3ccc(O)c(C)c3O)n[nH]c2C)cc1	14.8 µM	93.6%	
CSC1=NSC2=NC(=O)/C(=C\c3coc4ccccc4c3=O)C(=N)N12	> 100 µM (inactive)	19.2%	
COc1ccccc1-n1c(=O)oc2ccc(Cl)cc2c1=O	> 100 µM (inactive)		inhibition ([2]; at 6.25 µM): -0.76%
CC(Nc1ccc(Br)cn1)c1cc(Cl)ccc1O (stereo not given)	> 100 µM (inactive)		inhibition ([2]; at 0.781 µM): 12.8%
NC(N)=N/N=C/c1ccc(OCc2ccc(Cl)cc2)cc1	34.6 µM	81.6%	
CCn1c(=O)c(C(=O)Nc2nc3ccccc3[nH]2)c(O)c2ccccc21	> 100 µM (inactive)		inhibition ([2]; at 0.781 µM): 24.2%
S=C(NCc1ccc(Cl)cc1)NC12CC3CC(CC(C3)C1)C2	> 100 µM (inactive)		inhibition ([2]; at 0.195 µM): 14.1%
CC1CCCC2(C1)NC(=S)N(c1ccccc1)N2 (stereo not given)	20.5 µM	78.8%	
Oc1c(N=Nc2ccccn2)ccc2ccccc12	11.5 µM		inhibition ([2]; at 25 µM): 98.2%
O=C1c2cccc3c(Cl)ccc(c23)C(=O)N1O	39.6 µM	61.6%	
Cc1nc(Cl)c2oc3ccccc3c2n1	> 100 µM (inactive)	15.8%	
Cc1cc(-c2ccco2)c(C#N)c2nc3ccccc3n12	8.64 µM	77.8%	
CC(C)(CNC(=S)NCCc1ccccc1)CNC(=S)NCCc1ccccc1	> 100 µM (inactive)		inhibition ([2]; at 0.391 µM): 23.5%
CCS(=O)(=O)n1nc(-c2ccc(Cl)cc2)nc1SCc1ccccc1	> 100 µM (inactive)	15%	
C=CCSc1nnc2nc3c(nn12)c1cc(C)ccc1n3CC=C	> 100 µM (inactive)		inhibition ([2]; at 25 µM): 16.6%
CCOC(=O)c1c(NC(=S)Nc2ccc(Cl)cc2)sc2c1CCN(C)C2	8.2 µM		inhibition ([2]; at 25 µM): 99.8%
O=C1ON=C(c2ccccc2)/C1=C/c1ccc(OS(=O)(=O)c2ccccc2)cc1	> 100 µM (inactive)	11.6%	

SMILES	IC50 [1]	inhibition ([2]; at 50 µM)	further results
O=C(O)Cc1ccc2sc(-c3ccccc3)nc2c1	> 100 µM (inactive)	26.9%	
Cc1ccc(-c2nn(C(C)(C)C)c3ncnc(N)c23)cc1	0.458 µM	84.2%	
CC1Cc2ccccc2N1C(=O)CSC1=NCCS1 (stereo not given)	> 100 µM (inactive)		inhibition ([2]; at 0.781 µM): 16.7%
Cn1c(N2CCOCC2)c(/C=N/OC(=O)c2ccc(F)cc2)c2ccccc21	> 100 µM (inactive)	19.1%	
CCn1c(=O)c(C(=O)Nn2c(C)nc3ccccc3c2=O)c(O)c2ccccc21	13.4 µM		inhibition ([2]; at 25 µM): 99%
Nc1nsc2ccccc12	35.8 µM	63.5%	
Cc1cc(-c2n[nH]c(=S)n2/N=C/c2cc([N+](=O)[O-])ccc2Cl)n[nH]1	> 100 µM (inactive)		inhibition ([2]; at 0.781 µM): -1.78%
CCCS(=O)(=O)c1nnnn1-c1cccc(OC)c1	5.29 µM	99%	
Cc1nn2c(-c3ccncc3)nnc2c2ccccc12	11.8 µM		inhibition ([2]; at 25 µM): 73.2%
CC(=O)NC(c1cccs1)c1cc([N+](=O)[O-])c2cccnc2c1O (stereo not given)	> 100 µM (inactive)	17.1%	
O=c1oc2ccccc2c(O)c1/C=C1\C=Nc2ccccc21	5.05 µM	93.2%	
NNC(=O)c1ccc(COc2ccc3c(c2)CCC3)o1	15.5 µM	95.3%	
Nc1c(Nc2ccccc2)c2ccccc2oc1=O	47.1 µM	47.2%	
Oc1c(Br)cc(Br)cc1/C=N/c1nc2c(s1)CCCC2	5.27 µM	98.5%	
Cc1nn2c(-c3ccco3)nnc2c2ccccc12	> 100 µM (inactive)		inhibition ([2]; at 25 µM): 14.3%
CCn1c(Sc2nc(C)nc3scc(-c4cccs4)c23)n[nH]c1=O	22.9 µM		inhibition ([2]; at 25 µM): 55.1%
CNC(=O)c1cc2c(ccc3ccccc32)oc1=N	23.5 µM	74.8%	
CC1(C)C[C@H]2C=C(C=O)[C@]3(C=O)C[C@]3(C)[C@H]2C1	4.38 µM	100%	
c1ccc(-n2c(-c3ccco3)nnc2-c2ccco2)cc1	> 100 µM (inactive)		inhibition ([2]; at 12.5 µM): 22.7%
CCC1CCCCN1C(=O)CSc1nnc(-c2ccc(OC)cc2)o1 (stereo not given)	> 100 µM (inactive)		inhibition ([2]; at 12.5 µM): 24.1%
O=[N+]([O-])c1cc(/C=N/O)ccc1Sc1ccccc1	> 100 µM (inactive)	7.13%	
Cc1ccc(C(C[N+](=O)[O-])n2nc(C)cc2C)cc1 (stereo not given)	13 µM	99.2%	

SMILES	IC50 [1]	inhibition ([2]; at 50 µM)	further results
COc1ccc2cc(C(=O)O)ccc2c1	20.5 µM	72.1%	
Nc1ccc(O)c2c1C(=O)c1ccccc1C2=O	> 100 µM (inactive)		inhibition ([2]; at 25 µM): 16.4%
Clc1cccc(CN2COc3c(cc(Cl)c4cccnc34)C2)c1	6.88 µM	101%	
O=Nc1c(O)n(Cc2ccc(Cl)c(Cl)c2)c2ccccc12	43.1 µM	58.3%	
CCn1c2ccccc2c2cc(Nc3cc(C)nc4ncnn34)ccc21	> 100 µM (inactive)		inhibition ([2]; at 6.25 µM): 14.4%
Cc1nn2c3ccccc3nc2c2ccccc12	> 100 µM (inactive)		inhibition ([2]; at 0.195 µM): 15.3%
O=[N+]([O-])c1ccc(O)c2ncccc12	0.483 µM		inhibition ([2]; at 12.5 µM): 99.4%
c1ccc2nc3c(nc2c1)[nH]c1ccccc13	> 100 µM (inactive)	19.1%	
N/C(Cc1ccc(Cl)cc1)=N\OC(=O)c1ccccc1	29.8 µM	98%	
S=C(NCc1ccc(Cl)cc1Cl)NC1CCCCC1	> 100 µM (inactive)	22.8%	
CCCC1COC(Cn2cncn2)(c2ccc(Cl)cc2Cl)O1 (stereo not given)	0.184 µM		inhibition ([2]; at 3.125 µM): 97.3%
O=C(Oc1ccc(Cl)c2cccnc12)c1ccco1	12.4 µM	100%	
CCCn1c(C)cc(C(=O)COC(=O)c2ccc[nH]c2=O)c1C	> 100 µM (inactive)	17.4%	
Cc1ccc(-n2nnc3c(=O)n(CC(=O)N4CCC(C)CC4)cnc32)cc1	> 100 µM (inactive)		inhibition ([2]; at 25 µM): 17.4%
Cc1ccc(C)c(/C=C/C(=O)c2ccccc(=O)c2O)c1	6.38 µM		inhibition ([2]; at 25 µM): 100%
O=C(O)c1ccc(N(c2ccccc2)c2ccccc2)cc1	> 100 µM (inactive)		inhibition ([2]; at 0.195 µM): 10.2%
Fc1ccc(Br)cc1C1C=C(c2cccnc2)Nc2ncnn21 (stereo not given)	> 100 µM (inactive)	26.3%	
N/C(Cc1ccccc1)=N\OC(=O)c1cccc2ccccc12	8.26 µM	100%	
CCc1ccc(C2NC(=S)NC3=C2C(=O)N(c2ccccc2OC)C(c2ccc(CC)cc2)N3)cc1 (stereo not given)	> 100 µM (inactive)		inhibition ([2]; at 0.781 µM): 2.18%
Cc1cccc(C(=O)CC(=O)c2cc(Cl)ccc2O)c1	35.8 µM	52.9%	
CC(=O)NC1C(=O)N=C(SCC(=O)NC2CCCCC2)NC1=O (stereo not given)	> 100 µM (inactive)	20.3%	
CC(C)c1ccc2c(c1)C1(NN=C(c3ccccc3)S1)C(=O)N2 (stereo not given)	49.5 µM	49.5%	

SMILES	IC50 [1]	inhibition ([2]; at 50 µM)	further results
COc1ccc(NCc2nc3ccccc3n2CCOc2ccc(C)cc2)cc1	42.2 µM	52.7%	
O=C1NC(c2ccccn2)Nc2sc3c(c21)CCC3 (stereo not given)	> 100 µM (inactive)		inhibition ([2]; at 0.195 µM): 25.5%
Cc1ccccc1N=Cc1cccc(O)c1O	7.59 µM	99.2%	
O=C1OCC(CO)(CO)N=C1NNc1ccc(Cl)c(Cl)c1	1.6 µM	98.6%	
CCSc1nc(N)nc(-c2cccs2)c1C#N	35.2 µM	70.4%	
C=C(C)COc1ccc(-c2[nH]ncc2Oc2cccc(OC)c2)c(O)c1	> 100 µM (inactive)		inhibition ([2]; at 12.5 µM): 20.1%
C/C(=N\Nc1ccc(Cl)cc1)c1ccccn1	10.1 µM	97.1%	
Cc1ccc(-c2nnc3ccc(SC(C)C(=O)O)nn23)cc1 (stereo not given)	> 100 µM (inactive)		inhibition ([2]; at 6.25 µM): 10.5%
CC1=C(C)/C(=N\OS(=O)(=O)c2ccc(C)cc2)C=CC1=O	8.79 µM		inhibition ([2]; at 25 µM): 99.2%
Oc1ccc(CN2CCCCC2)c2cccnc12	51.8 µM	37.4%	
CN1CCc2cc3c(c4c2[C@H]1[C@H](O)c1ccccc1-4)OCO3	> 100 µM (inactive)	11.1%	
Cc1ccc(NC(=O)ON=C2CCCC2)cc1	15.2 µM	99.4%	
N#C/C(=N/O)c1nc(-c2ccc(F)cc2)cs1	15.9 µM	78.8%	
O=C(NC1CCCCC1)Sc1ccc(Cl)cc1	> 100 µM (inactive)	24.2%	
COc1ccc(C(=O)NC(=S)NNC(=O)c2cnccn2)cc1OC	46.5 µM		inhibition ([2]; at 25 µM): 47.1%
COCC(C)OC(=O)/C(C#N)=C\c1coc2ccc(C)cc2c1=O (stereo not given)	> 100 µM (inactive)	16.6%	
Cc1cc(Cl)ccc1N=c1ssnc1Cl	> 100 µM (inactive)		inhibition ([2]; at 12.5 µM): 14%
Nc1[nH]c(=O)ncc1F	17.5 µM	84.8%	
O=C(O)C1C2C=CC(O2)C1C(=O)NC1CCCc2ccccc21 (stereo not given)	> 100 µM (inactive)		inhibition ([2]; at 6.25 µM): 10.9%
